The results in this text go back to patent publication US20040229825A1, “Pharmaceutical composition for treatment of infection with drug resistant bacterium and disinfectant” (priority 2003, published 2004).

Experiment [1] concerns MRSA. Kind of experiment: Antibacterial activity of flavonoids on MRSA (agar plate dilution method, MIC). It is filed as cell-based, Staphylococcus aureus. The settings on record: flavonoid alone; for MIC50 / MIC90 / MIC range / MIC: MRSA 20 strains; for MIC: 20 h. As to the method:
(§1) MRSA were employed as bacteria to be tested. The antibacterial activity was determined according to the agar plate dilution method defined by Japan Society of Chemotherapy (Chemotherapy 29(1), 76-79(1981)). The employed plate medium for the measurement of sensitivity was semisynthetic medium based on Mueller-Hinton Agar, and the bacteria solution for seeding was prepared by incubating the test bacterium in Mueller-Hinton Broth at 37° C. for 20 hours, followed by diluting in 0.85% saline to give 10^6 CFU/mL. The test samples were produced in two times-serial dilution method. To this plate medium for the measurement of sensitivity, was seeded a bacteria solution with a Micro Planter® (Sakuma Seisakusho). After incubating at 37° C. for 20 hours, a minimum inhibitory concentration (MIC) was determined. […] In addition, MIC50 indicates a concentration yielding the proliferation inhibitory effect in 50% of total number of MRSA strains, whilst MIC90 indicates a concentration yielding the proliferation inhibitory effect in 90% of total number of MRSA strains.

Experiment [2] deals with MRSA. Kind of experiment: Enhancement of the antibacterial activity of various antibiotics by flavone on MRSA. It is filed as cell-based, Staphylococcus aureus. The settings on record: for MIC: Staphylococcus aureus, antibiotics alone; for MIC +flavone: addition of 50 μg/mL of flavone. As to the method: as §1
Antibacterial Activities of Various β-Lactam Antibiotics on MRSA with 50 μg/mL of Flavone

[3] abbreviates: Staphylococcus aureus, read-out: MIC50.
[4] abbreviates: Staphylococcus aureus, read-out: MIC90.

In brackets after ≈: the same amount, converted by molar mass. Like-named read-outs stand apart in the source and are kept apart here.

For orientation: MIC50 means the lowest concentration that inhibits either 50% of growth or 50% of the strains tested, depending on the study. A word on the MIC90: it is the lowest concentration that inhibits either 90% of growth or 90% of the strains tested, depending on the study. As to `COc1ccc(-c2oc3cc(O)cc(O)c3c(=O)c2O)cc1` [kaempferid], in experiment [1], the MIC50 worked out at 125 µg/mL (≈ 416 µM), the MIC90 was 125 µg/mL (≈ 416 µM), the MIC range is 15.6 to 125 µg/mL and the “antibacterial activity on MRSA (in words)” value (from here on “antibacterial activity”) was “potent antibacterial activity”.
Broadly, the MIC is the least concentration at which growth counts as inhibited. Consider `O=c1cc(-c2ccc(O)c(O)c2)oc2ccccc12` [3′,4′-dihydroxyflavone], for which, in experiment [1] (Staphylococcus aureus), the minimum inhibitory concentration (MIC) was 62.5 to 250 µg/mL (≈ 246 to 983 µM). The MIC50 in experiment [1] (setting [3]) is 125 µg/mL (≈ 492 µM). For the same compound, the MIC90 in experiment [1] (setting [4]) was found to be 250 µg/mL (≈ 983 µM). The “antibacterial activity” value in experiment [1] is “potent antibacterial activity”.
Consider `CO[C@@]1(NC(=O)Cc2cccs2)C(=O)N2C(C(=O)O)=C(COC(N)=O)CS[C@@H]21` [cefoxitin], for which, in experiment [2], the MIC stood at 512 µg/mL and the “MIC +flavone” value is 32 µg/mL.
For `O=C1C[C@@H](c2ccc(O)cc2)Oc2cc(O)cc(O)c21` [naringenin], in experiment [1] (setting [3]), the MIC50 stood at 500 µg/mL (≈ 1840 µM). Further, the MIC90 in experiment [1] (setting [4]) was over 500 µg/mL.
As for `Oc1cc(O)c2cc(O)c(-c3ccc(O)c(O)c3)[o+]c2c1` [cyanidin], the MIC50 in experiment [1] (setting [3]) stood at 250 µg/mL. Also, in experiment [1] (setting [4]), the MIC90 is over 500 µg/mL.
`O=c1c(O)c(-c2ccc(O)cc2O)oc2cc(O)cc(O)c12` [morin]: the MIC50 in experiment [1] (setting [3]) was determined as 500 µg/mL (≈ 1650 µM). In experiment [1] (setting [4]), the MIC90 was over 500 µg/mL.
As to `CC(Oc1ccccc1)C(=O)N[C@@H]1C(=O)N2[C@@H]1SC(C)(C)[C@@H]2C(=O)O` (stereo partly drawn) [phenethicillin], in experiment [2], the MIC was 128 µg/mL and the “MIC +flavone” value is 16 µg/mL.
Take `O=c1cc(-c2ccccc2)oc2c(O)c(O)ccc12` [7,8-dihydroxyflavone]: in experiment [1] (Staphylococcus aureus), the MIC is 31.3 to 125 µg/mL (≈ 123 to 492 µM). Further, the MIC50 in experiment [1] (setting [3]) stood at 62.5 µg/mL (≈ 246 µM). Further, the MIC90 in experiment [1] (setting [4]) was 125 µg/mL (≈ 492 µM). In addition, the “antibacterial activity” value in experiment [1] is given as “potent antibacterial activity”.
Take `O=C1c2ccc(O)cc2O[C@H](c2ccc(O)c(O)c2)[C@H]1O` [fustin]: the MIC50 in experiment [1] (setting [3]) is 500 µg/mL (≈ 1730 µM). Also, the MIC90 in experiment [1] (setting [4]) was 500 µg/mL (≈ 1730 µM).
For the compound `O=c1cc(-c2ccccc2)oc2cc(O)c(O)cc12` [6,7-dihydroxyflavone], the MIC50 in experiment [1] (setting [3]) came to 62.5 µg/mL (≈ 246 µM). In addition, in experiment [1] (setting [4]), the MIC90 is 125 µg/mL (≈ 492 µM). Moreover, in experiment [1], the “antibacterial activity” value is on record as “potent antibacterial activity”.
In experiment [1], `O=C1c2ccc(O)cc2OC(c2cc(O)c(O)c(O)c2)C1O` (stereo in doubt) [dihydrorobinetin] had an MIC50 of 250 µg/mL (≈ 822 µM), an MIC90 of 250 µg/mL (≈ 822 µM) and an MIC range of 250 µg/mL (≈ 822 µM).
For `Oc1ccc(-c2[o+]c3cc(O)cc(O)c3cc2O)cc1` [palagonidin], the MIC in experiment [1] (Staphylococcus aureus) came out at 250 µg/mL. For the same compound, in experiment [1] (setting [3]), the MIC50 amounted to 250 µg/mL. The MIC90 in experiment [1] (setting [4]) came to 250 µg/mL.
As for `CO/N=C(\C(=O)N[C@@H]1C(=O)N2C(C(=O)O)=C(COC(C)=O)CS[C@H]12)c1csc(N)n1` [cefotaxime], in experiment [2], the MIC was over 1020 µg/mL and the “MIC +flavone” value was 64 µg/mL.
Compound `O=C(CCc1ccc(O)cc1)c1c(O)cc(O)cc1O` [phloretin] returned a minimum inhibitory concentration (MIC) in experiment [1] (Staphylococcus aureus) of 125 to 250 µg/mL (≈ 456 to 912 µM). The MIC50 in experiment [1] (setting [3]) worked out at 250 µg/mL (≈ 912 µM). In addition, the MIC90 in experiment [1] (setting [4]) is 250 µg/mL (≈ 912 µM).
As to `O=C1C[C@@H](c2ccc(O)cc2)Oc2cc(O)ccc21` [liquiritigenin], in experiment [1], the MIC50 turned out to be 500 µg/mL (≈ 1950 µM), the MIC90 was 500 µg/mL (≈ 1950 µM) and the MIC range was 250 to 500 µg/mL.
`O=c1c(O)c(-c2ccc(O)c(O)c2)oc2cc(O)ccc12` [fisetin]: the minimum inhibitory concentration (MIC) in experiment [1] (Staphylococcus aureus) lay within 62.5 to 125 µg/mL (≈ 218 to 437 µM). In addition, the MIC50 in experiment [1] (setting [3]) is 125 µg/mL (≈ 437 µM). Moreover, the MIC90 in experiment [1] (setting [4]) turned out to be 125 µg/mL (≈ 437 µM). Further, the “antibacterial activity” value in experiment [1] is recorded as “potent antibacterial activity”.
Consider `O=C(/C=C/c1ccc(O)c(O)c1)c1ccc(O)cc1O` [butein], for which the MIC in experiment [1] (Staphylococcus aureus) lay in the range of 125 to 250 µg/mL (≈ 459 to 918 µM). The MIC50 in experiment [1] (setting [3]) amounted to 250 µg/mL (≈ 918 µM). Besides, the MIC90 in experiment [1] (setting [4]) amounted to 250 µg/mL (≈ 918 µM).
The compound `O=c1cc(-c2ccc(O)cc2)oc2cc(O)ccc12` [7,4′-dihydroxyflavone] displayed a minimal inhibitory concentration (MIC) in experiment [1] (Staphylococcus aureus) of 125 to 500 µg/mL (≈ 492 to 1970 µM). The MIC50 in experiment [1] (setting [3]) is 250 µg/mL (≈ 983 µM). For the same compound, the MIC90 in experiment [1] (setting [4]) worked out at 500 µg/mL (≈ 1970 µM).
As to `O=c1c(O)c(-c2cc(O)c(O)c(O)c2)oc2cc(O)cc(O)c12` [myricetin], the MIC in experiment [1] (Staphylococcus aureus) was 250 to 500 µg/mL (≈ 786 to 1570 µM). For the same compound, the MIC50 in experiment [1] (setting [3]) is 500 µg/mL (≈ 1570 µM). Besides, in experiment [1] (setting [4]), the MIC90 was 500 µg/mL (≈ 1570 µM).
